According to patent publication US20090305225A1, “Inhibition of Creatine Uptake to Promote Weight Loss” (priority 2005, published 2009):

Key:
[1] = Body weight and food intake after icv administration of beta-GPA in rats; format: in vivo, rat
Description: (§1) All animal handling was approved by and done in accordance with the guidelines and requirements of the University of Vermont Institutional Animal Care Use Committee. Adult male Sprague-Dawley rats (mycoplasma free; 200 g) were purchased from Charles River (Quebec, Canada) and housed in an air-conditioned (23+1 degree C.) room with lights on for 12 hours daily (starting at 6:00 a.m.) in the University of Vermont Animal Facility. Rats were housed singly in regular cages with free access to Purina Rat Chow (RMH 3000) and water for at least five days prior to surgery. Stereotactic surgery was used to implant chronic indwelling stainless steel cannulae into the third ventricle of the brain under fentanyl/droperidol anesthesia. Coordinates for cannula placement were obtained from the Konig Klippel stereotactic surgery atlas; with the nose bar 2.4 mm below the intraaural line and the vertical micrometer gantry tilted 9 degrees towards the animal, the coordinates were 4.9 mm dorsal to the intraaural line, 5 mm anterior to the intraaural line and 1.1 mm lateral to the midline. A minimum of 5 days later, animals were injected icv with beta-GPA (which was dissolved in saline at 50 degrees C. and the pH adjusted to 7.2-7.4 with dilute HCl) or other experimental compounds at the indicated concentrations. Control animals received equal volumes of vehicle. Volumes of icv injections never exceeded 10 ul per animal and were administered over 5-10 seconds. In some experiments, animals received two or more icv injections on the same or different days. Measures of body weight were made daily with a digital balance with a 6 second integration period to minimize the effects of animal movement. For experiments involving measurement of food intake, after stereotactic surgery animals were housed in individual Nalgene metabolic cages and given additional time for acclimation to the cage and feeding system. Food intakes were measured using powdered rat chow with daily weigh-backs as indicated.

[2] = format: physicochemical
Description: as §1, with “Control animals received equal volumes of vehicle. Volumes of icv injections never exceeded 10 ul per animal and were administered over 5-10 seconds. In some experiments, animals received two or more icv injections on the same or different days. Measures of body weight were made daily with a digital balance with a 6 second integration period to minimize the effects of animal movement. For experiments involving measurement of food intake, after stereotactic surgery animals were housed in individual Nalgene metabolic cages and given additional time for acclimation to the cage and feeding system.” left out, “indicated. […]” for “indicated.”

[3] = system: creatine transporter (CrT) mRNA; experiment: Real-Time PCR of creatine transporter mRNA in hypothalami of beta-GPA-treated rats; format: in vivo, rat; details: hypothalamus, normalized to L32 mRNA, not statistically significant, FIG. 4
Description: RNA was purified with […] (Promega) at 37 degrees C. for 30 min. The first strand of cDNA was synthesized by adding 1 ug of purified RNA from each sample to 20 ul containing MMLV reverse transcriptase (Invitrogen Life Tech). Creatine transporter (CrT) gene expression was further quantatified by Real-Time PCR using sense primer: 5′GGTAAGGGTGCAA GCCTTTG′ (SEQ ID NO: 1); antisense primer: 5′[…]-3′ (SEQ ID NO:2) and TaqMan probe: 5′[…]-3′ (SEQ ID NO: 3) (MMG-Biotech). The rat ribosomal protein L32 gene was used as a loading control. 1 ul of each cDNA sample derived from the 20 ul reverse transcription reaction and 1 ug RNA template was mixed with 24 ul master mixture (Perkin Elmer) in a 96-well TaqMan plate. The PCR was run in an ABI prism 7700 thermocycler (Applied Biosystems) at 50 degrees C. for 2 min and 95 degrees C. for 10 min, followed by 95 degrees C. for 15 sec and 60 degrees C. for 1 min for 40 cycles. The data were analyzed using software supplied with the ABI prism 7700.

Fos (c-fos protein) = experiment: Fos immunohistochemistry of hypothalamic sections 4 hours after icv injection; format: in vivo, rat; details: 4 hours after icv 2 mg per rat, especially around the III ventricles
Description: In experiments involving immunohistochemistry, animals were injected icv with beta-GPA or with vehicle. Four hours after injection, animals were anesthetized with halothane and perfused through the left ventricle of the heart, initially with oxygenated Krebs buffer and then with ˜350 ml of 4% paraformaldehyde in 0.1M NaCl, pH 7.4 phosphate buffered saline (PBS). Brains were extracted from the skull, hypothalamic blocks dissected (by coronal cuts anterior and posterior to hypothalamic landmarks) and post-fixed in 4% paraformaldehyde solution at 4 degrees C. overnight. The following day, the blocks were transferred to 30% sucrose and incubated overnight at 4 degrees C. After freezing in Optimum Cutting Temperature (OCT) compound (Sakura, Japan), blocks were sectioned coronally at 40 um on a cryostat and sections individually floated in multi-well dishes filled with PBS. Sections were treated for 30 minutes with 0.4% Triton detergent in potassium PBS to aid in antibody penetration. Primary antibodies were added, the plates shaken gently for 1 hour at room temperature, then incubated at 4 degrees C. for 72 hours. Sections were then brought to room temperature while shaking and the primary antibody solution was removed by washing 3 times with PBS buffer. After removal of the last wash, the secondary antibody solution was added and the plates incubated for 2 hours at room temperature in the dark. Removal of the second antibody was achieved by washing three times with PBS buffer prior to mounting on subbed slides. They were allowed to dry, rewetted with PBS buffer and cover-slipped with Citifluor (Ted Pella, Reading, Calif.).
Fos studies were performed using indirect fluorescence visualization. The method utilized rabbit c-Fos-AB5 (1:2,000; Oncogene Research Products, Cambridge, Mass.) with goat anti-rabbit Cy3 (1:500; Jackson Immuno Research Laboratories, West Grove, Pa.) as the secondary antibody. […] Staining observed in experimental tissue was compared to that observed from experiment-matched negative controls. […] Immunoreactive Fos (Fos IR) was quantified by capturing images at 10× using MagnaFire 2.0 Software. These images were imported into the Metamorph 6.1 Software package and density of staining measured using Hue Saturation Intensity. Regions outlining nuclei were hand drawn with an electric pen and the total areas and stained areas measured to yield percentages of total areas with specific Fos-IR. The values for left and right dorsomedial nuclei in each rat were averaged, and the averages used to calculate means. In the case of the III ventricle, the entire image was used for quantification prior to calculating the percentage of the area with Fos-IR.

[4] = icv 1 mg, 2 mg or 3 mg per animal, FIG. 2
[5] = icv 2 mg/rat, single dose, FIG. 1

**Q.** Which results are given for `N=C(N)NCCC(=O)O` [beta-GPA, 3-guanidopropionic acid]?
**A.** body weight [1, 4]: decreased in a dose-dependent fashion; food intake [1, 4]: decreased in a dose-dependent fashion; time until body weight and food intake returned to values indistinguishable from vehicle-treated animals ([1]; icv 2 mg/rat, single dose): four; body weight [1, 5]: modest decreases; food intake [1, 5]: modest decreases; effect of icv dose (body weight and food intake) ([1]; icv, 0.04 mg, five-fold lower dose, dose-ranging study): without effect; magnitude of body weight and food intake effects after a second identical dosage ([1]; second icv dose seven days after the first, FIG. 2): enhanced considerably; usability of a five-fold greater icv dose (10 mg) [2]: not usable because of solubility dictates; relative units of CrT gene expression versus vehicle-treated animals [3]: slight decrease; Fos IR (Fos (c-fos protein)): increased
